Data: patent US20230381327A1, “REACTIVE CONJUGATES” (DEBIOPHARM RESEARCH & MANUFACTURING S.A., priority 2020, published 2023)
Blank lines part the entries; values can stand above or below the molecule they belong to. Residues, ends and D or L forms follow the SMILES beside them.

Tests used:
rituximab = molecular target: T1, rituximab (Homo sapiens, UniProt P01857); assay: Antibody-payload conjugation, HRMS analysis (Example 12)
T1 construct: purchased Roche RITUXAN®
Procedure: To prepare the trastuzumab-payload conjugates, 2 eq of reactive conjugate prepared in Examples 5-8, 10 (2.4 nmol) in DMSO (2-7% v/v in final reaction mixture) was added to a solution of trastuzumab (1 eq, 1.2 nmol; commercial trastuzumab Herceptin® available from Roche which was buffer-exchanged into phosphate-buffered saline (PBS) prior to the conjugation) diluted in 50 mM NaHCO3 pH 9.0 (20-28 μL) and the reaction mixture (36 μL) was stirred at room temperature for 2 hours.
(§1) The conjugation of the payload moiety to trastuzumab was evaluated by HRMS analysis (as described above). The payload loading ratios (selectivity) between Fc and F(ab)2 were evaluated by digesting the conjugates with GingisKhan protease (1 unit per μg of antibody conjugate in the presence of 2 mM cysteine, 0.1M Tris, pH 8.0 for 1 hour at 37° C.), and subsequent HRMS analysis (as described above). The Degree of Conjugation (DoC) of the trastuzumab-payload conjugates was evaluated based on the results of the HRMS analysis (as described above).
The propensity of the reactive conjugates of the present invention to react with different antibodies was evaluated using commercially available atezolizumab, rituximab, trastuzumab emtansine, brentuximab-vedotin, aflibercept, panitumumab, pembrolizumab and Fc region only. Antibody-DOTA/FITC conjugates were prepared according to the same procedure as described in Example 11 above using peptide conjugates (indicated in Table 19) and the aforementioned antibodies.
(§2) DoC Fc=DoC−DoC F(ab)2, Selectivity Fc/F(ab)2=(DoC−DoC F(ab)2)/Doc (Fab)2

trastuzumab = molecular target: T2, trastuzumab (Homo sapiens, UniProt P01857, D239E/L241M); assay: Preparation of trastuzumab-payload conjugates in solution, HRMS analysis (DoC, Fc/F(ab)2 selectivity); settings: 10 eq of peptide-payload conjugate
T2 construct: purchased Roche Herceptin®
Procedure: Deglycosylation of the conjugates was achieved by incubating 1 unit of Endo S per μg of conjugate in the formulation buffer (37° C.-1 hour).
The average Degree of Conjugation (DoC) values were calculated using the HRMS data and the Equation 1 (Eq. 1) below.
where I(DoCk) is the relative peak intensity of conjugates with k add-on molecules per antibody.
After payload conjugation, the reaction buffer was diluted with 64 μL of 0.1 M glycine pH 2.5. The antibody conjugate was then purified by gel filtration chromatography using a pre-equilibrated with 0.1 M glycine pH 2.5 Bio-spin P-30 Column (bed height: 3.7 cm, overall length: 5 cm; available from Bio-Rad, USA) and then eluted with 0.1M glycine pH 2.5. The purified antibody conjugate fractions were neutralized with 1M PBS pH 8.5 (10 μL).
as §1, §2

Fc region of trastuzumab = Fc region of trastuzumab (Homo sapiens, UniProt P01857); assay: Competitive FP binding assay against Fc-III-FAM
Procedure: All sample preparations were done in PBS pH 7.0 containing 0.05% Tween. Each experiment was performed in triplicate.

binding to the Fc region of trastuzumab compared to Fc-III (in words) (Fc region of trastuzumab): significant impact on peptide binding
SMILES: CC(=O)N[C@@H](CC(=O)O)C(=O)N[C@H]1CSSC[C@@H](C(=O)N[C@H](C(N)=O)[C@@H](C)O)NC(=O)[C@H](Cc2c[nH]c3ccccc23)NC(=O)[C@H](C(C)C)NC(=O)[C@H](CC(C)C)NC(=O)[C@H](CCC(=O)O)NC(=O)CNC(=O)[C@H](CC(C)C)NC(=O)[C@H](Cc2c[nH]cn2)NC(=O)[C@H](CCCCN)NC(=O)[C@H](C)NC1=O [Compound W4K] (HELM PEPTIDE1{[ac].D.C.A.K.H.L.G.E.L.V.W.C.T.[am]}$PEPTIDE1,PEPTIDE1,3:R3-13:R3$$$V2.0)

binding to the Fc region of trastuzumab compared to Fc-III (in words) (Fc region of trastuzumab): significant impact on peptide binding
SMILES: CC(=O)N[C@@H](CC(=O)O)C(=O)N[C@H]1CSSC[C@@H](C(=O)N[C@H](C(N)=O)[C@@H](C)O)NC(=O)[C@H](CCCCN)NC(=O)[C@H](C(C)C)NC(=O)[C@H](CC(C)C)NC(=O)[C@H](CCC(=O)O)NC(=O)CNC(=O)[C@H](CC(C)C)NC(=O)[C@H](Cc2c[nH]cn2)NC(=O)[C@H](Cc2c[nH]c3ccccc23)NC(=O)[C@H](C)NC1=O [Compound W11K] (HELM PEPTIDE1{[ac].D.C.A.W.H.L.G.E.L.V.K.C.T.[am]}$PEPTIDE1,PEPTIDE1,3:R3-13:R3$$$V2.0)

More lines, now with the values behind:

SMILES: O=C(OCCOCCNC(=S)Nc1ccc2c(c1)C(=O)OC21c2ccc(O)cc2Oc2cc(O)ccc21)Oc1ccc(C(=O)O)cc1 [Carbonate-FITC, 4-[2-[2-[(3′,6′-dihydroxy-3-oxo-spiro [isobenzofuran-1,9′-xanthene]-5-yl)carbamothioylamino]ethoxy]ethoxycarbonyloxy]benzoic acid]
DoC F(ab)2 (rituximab): 0.20
Selectivity Fc/F(ab)2 (rituximab): 3.2
DoC (rituximab; procedure of Example 11): 0.84
Labeled mAb (%) (rituximab; procedure of Example 11): 59%
DoC Fc (rituximab; some values extrapolated as DoC − DoC F(ab)2): 0.64
DoC (trastuzumab): 0.83
DoC F(ab)2 (trastuzumab): 0.54
DoC Fc (trastuzumab): 0.29
Labeled mAb (%) (trastuzumab): 59%
Selectivity Fc/F(ab)2 (trastuzumab): 0.5

SMILES: CC(=O)N[C@@H](CC(=O)O)C(=O)N[C@H]1CSSC[C@@H](C(=O)N[C@H](C(N)=O)[C@@H](C)O)NC(=O)[C@H](Cc2c[nH]c3ccccc23)NC(=O)[C@H](C(C)C)NC(=O)[C@H](CC(C)C)NC(=O)[C@H](CCC(=O)O)NC(=O)CNC(=O)[C@H](CC(C)C)NC(=O)[C@H](Cc2c[nH]cn2)NC(=O)[C@H](Cc2c[nH]c3ccccc23)NC(=O)[C@H](CCCCN)NC1=O [Compound A3K] (HELM PEPTIDE1{[ac].D.C.K.W.H.L.G.E.L.V.W.C.T.[am]}$PEPTIDE1,PEPTIDE1,3:R3-13:R3$$$V2.0)
binding to the Fc region of trastuzumab compared to Fc-III (in words) (Fc region of trastuzumab): moderate binding efficiency

SMILES: CC(=O)N[C@@H](CC(=O)O)C(=O)N[C@H]1CSSC[C@@H](C(=O)N[C@H](C(N)=O)[C@@H](C)O)NC(=O)[C@H](Cc2c[nH]c3ccccc23)NC(=O)[C@H](C(C)C)NC(=O)[C@H](CC(C)C)NC(=O)[C@H](CCC(=O)O)NC(=O)CNC(=O)[C@H](CC(C)C)NC(=O)[C@H](CCCCN)NC(=O)[C@H](Cc2c[nH]c3ccccc23)NC(=O)[C@H](C)NC1=O [Compound H5K] (HELM PEPTIDE1{[ac].D.C.A.W.K.L.G.E.L.V.W.C.T.[am]}$PEPTIDE1,PEPTIDE1,3:R3-13:R3$$$V2.0)
binding to the Fc region of trastuzumab compared to Fc-III (in words) (Fc region of trastuzumab): moderate binding efficiency

SMILES: CC(=O)N[C@@H](CC(=O)O)C(=O)N[C@H]1CSSC[C@@H](C(=O)N[C@H](C(N)=O)[C@@H](C)O)NC(=O)[C@H](Cc2c[nH]c3ccccc23)NC(=O)[C@H](C(C)C)NC(=O)[C@H](CC(C)C)NC(=O)[C@H](CCC(=O)O)NC(=O)CNC(=O)[C@H](CCCCN)NC(=O)[C@H](Cc2c[nH]cn2)NC(=O)[C@H](Cc2c[nH]c3ccccc23)NC(=O)[C@H](C)NC1=O [Compound L6K] (HELM PEPTIDE1{[ac].D.C.A.W.H.K.G.E.L.V.W.C.T.[am]}$PEPTIDE1,PEPTIDE1,3:R3-13:R3$$$V2.0)
binding to the Fc region of trastuzumab compared to Fc-III (in words) (Fc region of trastuzumab): moderate binding efficiency

SMILES: CC(=O)N[C@@H](CC(=O)O)C(=O)N[C@H]1CSSC[C@@H](C(=O)N[C@H](C(N)=O)[C@@H](C)O)NC(=O)[C@H](Cc2c[nH]c3ccccc23)NC(=O)[C@H](CCCCN)NC(=O)[C@H](CC(C)C)NC(=O)[C@H](CCC(=O)O)NC(=O)CNC(=O)[C@H](CC(C)C)NC(=O)[C@H](Cc2c[nH]cn2)NC(=O)[C@H](Cc2c[nH]c3ccccc23)NC(=O)[C@H](C)NC1=O [Compound V10K] (HELM PEPTIDE1{[ac].D.C.A.W.H.L.G.E.L.K.W.C.T.[am]}$PEPTIDE1,PEPTIDE1,3:R3-13:R3$$$V2.0)
binding to the Fc region of trastuzumab compared to Fc-III (in words) (Fc region of trastuzumab): moderate binding efficiency
